Data set [1] relates to sulfenic acids in 293T cell lysates. Description: Dimedone-alkyne detection of sulfenic acids in lysates. The format is biochemical, human. The protocol:
FIG. 12. Sulfenic acids are eliminated by ascorbate reduction or denaturing buffers. Lysates were labeled for 1 hour with 1 mM dimedone-alkyne, and precipitated with chloroform:methanol. The protein fraction was sonicated in PBS and diluted to 1 mg/mL, and incubated with 20 μM TAMRA-azide, 1 mM CuSO4, and 100 μM Tris[(1-benzyl-1H-1,2,3-triazol-4-yl)methyl]amine (TBTA) for 1 hour, boiled in reducing loading buffer, and separated by SDS-PAGE. After transfer and Cy5-streptavidin binding, the gel was visualized using a GE Typhoon fluorescence scanner. […] Pre-treatment with sodium ascorbate (20 mM) for 30 minutes efficiently reduces sulfenic acids. […] Furthermore, ascorbate reduces sulfenic acids, and confirms non-selective enrichment of an additional cysteine oxidative modification by the biotin-switch method.

For data set [2], the target named is T1, Recombinant human GAPDH (Homo sapiens, UniProt P04406).
T1 construct: 6His; made in house; host or cells: E. coli BL21
T1 sequence (P04406 whole entry): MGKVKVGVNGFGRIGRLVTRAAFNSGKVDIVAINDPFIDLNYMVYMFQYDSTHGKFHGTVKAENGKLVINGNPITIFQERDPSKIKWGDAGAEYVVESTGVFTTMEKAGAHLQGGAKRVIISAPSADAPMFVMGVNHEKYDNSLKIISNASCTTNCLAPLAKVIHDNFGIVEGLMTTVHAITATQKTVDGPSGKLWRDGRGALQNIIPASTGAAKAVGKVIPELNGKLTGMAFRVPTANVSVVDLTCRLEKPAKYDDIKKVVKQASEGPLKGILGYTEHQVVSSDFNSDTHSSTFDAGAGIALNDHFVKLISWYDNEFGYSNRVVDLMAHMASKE
Description: Labeling of recombinant GAPDH (in-gel fluorescence, LC-MS). The format is biochemical. The protocol: FIG. 14. Profiling fluorescein-SO2H reactivity and selectivity on S-nitrosylated GAPDH. Recombinant human GAPDH was resuspended in 6 M urea/PBS, treated with 50 mM iodoacetamide for 30 minutes, and mixed with dimedone, ascorbate, peroxide or NO donor (5 minutes). Fluorescein-SO2H (500 μM) was then added to the GAPDH sample for 45 minutes. S-nitrosylated human GAPDH labeling increases upon incubation with the NO donor MAHMA-NONOate, and decreases following treatment with ascorbate. […] Fluorescein-SO2H labeling is unaffected by pre-incubation with peroxide or dimedone.
FIG. 15. Biotin-SO2H reacts with human GAPDH and forms a thiosulfonate. Recombinant human GADPH was labeled with biotin-SO2H for site-specific analysis of S-nitrosylation by high-resolution mass spectrometry.
Given the efficient and selective conjugation of sulfinic acids and nitrosothiols, recombinant human GAPDH were next purified for targeted analysis of S-sulfinylation with biotin-SO2H. […] Biotin-SO2H-labeled GAPDH protein was digested with trypsin and analyzed by high-resolution mass spectrometry, identifying a biotin-thiosulfonate modified peptide encompassing the GAPDH catalytic cysteine (FIG. 15). […] These studies confirm direct detection of native of S-sulfinylation by sulfinic acid probes for mass spectrometry analysis.
Purified human GAPDH was diluted to 0.2 mg/mL in phosphate buffered saline (pH 7.3), and treated with 20 mM iodoacetamide for 30 minutes. Next, the sample was treated with 100 μM biotin-SO2H. Purified human DJ-1 was diluted to 0.2 mg/mL in PBS, and incubated with 20 mM iodoacetamide to alkylated free thiols. Next, the sample was treated with 2 mM hydrogen peroxide for 20 minutes to promote Cys106 sulfinic acid formation. […] Eluted peptides were analyzed using a Waters Synapt G2-S HDMS time-of-flight mass spectrometer in positive mode. […] MS data was searched using Waters Protein Lynx Global Server v3.0 using the exact mass calculated for the cysteine thiosulfonate modification.

The test system of data set [3] is S-nitrosylated proteins in mammalian cell lysates. Nature of the data set: Gel-based labeling of endogenous S-nitrosylated proteins in cell lysates. Format: biochemical, human. To be noted: lysates denatured, alkylated with iodoacetamide; streptavidin detection. The protocol:
FIG. 8. Dose-dependent labeling of S-nitrosylated proteins by biotin-SO2H. 293T and PANC1 cells were lysed in 6 M urea/PBS and alkylated with 50 mM iodoacetamide for 30 minutes, followed by incubation with increasing concentrations of biotin-SO2H for 45 minutes.
Next, the reactivity of sulfinic acids with native S-nitrosylated proteins was examined. Biotin and fluorescein N-hydroxysuccinimide (NHS) esters were directly coupled to the biological sulfinic acid metabolite hypotaurine (biotin-SO2H) or the sulfonic acid metabolite taurine (biotin-SO3H). Each probe was incubated with mammalian cell lysates pre-alkylated with excess iodoacetamide (FIG. 1b) in 6 M urea/phosphate buffered saline (PBS), and separated by non-reducing SDS-PAGE for transfer to nitrocellulose and streptavidin detection. […]
Cells and lysates were protected from light and kept on ice throughout the labeling protocol, except when noted. […] Lysate protein concentrations were quantified using the Bio-Rad DC assay, and diluted 3 mg/mL in 6 M urea/PBS. […] For in-gel fluorescence analysis, samples were loaded without boiling using non-reducing SDS-PAGE loading buffer for SDS-PAGE separation. […] In-gel fluorescence and streptavidin blots were analyzed using a GE typhoon scanner at appropriate wavelengths (488/526 for fluorescein and 633/670 for Cy5-Streptavidin).

The nature of data set [4]: Rate constant determination: loss of GSNO absorbance after phenylsulfinic acid addition. Format: physicochemical. The procedure:
FIG. 6A-B. GSNO is consumed by increasing concentrations of sodium phenylsulfinate. (a) A 2 mM solution of S-nitrosoglutathione (GSNO, Cayman) was treated with increasing concentrations of phenylsulfinic acid, and the absorbance of GSNO was monitored over a period of 90 minutes at 340 nm using a plate reader in varying pH buffers. (b) Calculation of rate constants at differing pH values. At pH 7, the rate becomes more hyperpbolic.
Thiosulfonate formation was further characterized by measuring the loss of S-nitroso-glutathione (GSNO) absorbance after phenylsulfinic acid addition (FIG. 6). At pH 1 and 4, the reaction rate is first order and proceeds at 3×10^−5 M·sec^−1. […]
S-nitrosoglutathione (GSNO, Cayman) and sodium phenylsulfinate (Sigma-Aldrich) were used for rate-determination studies at four pH values: pH 1.0 (0.2 N HCl/KCl buffer), pH 4.0 (0.1 M Sodium acetate/Acetic Acid buffer), pH 7.0 (0.1 M potassium phosphate buffer) and pH 10.0 (0.1 M Sodium bicarbonate/Sodium hydroxide buffer). The purity of S-nitrosoglutathione was calculated as 94±1.3% by absorbance at 334 nm using the molar extinction coefficient of 900 M^−1 cm^−1. Assays were performed using a plate reader (Tecan Infinite F500) monitoring absorbance of 2 mM GSNO at 340 nm over a course of 90 minutes in the presence of varying concentrations of sodium phenylsulfinate. […]

The nature of data set [5]: HPLC cross-reactivity assay of phenylsulfinic acid. The format is physicochemical. The protocol: FIG. 3. […] A 10 mM solution of phenylsulfinic acid was allowed to react with a 20 mM solution of iodoacetamide in potassium phosphate buffer pH 7.4 for 5 hours. After 5 hours, the reaction mixture was injected on an HPLC and separated using gradient elution (5% ACN to 95% ACN over 15 minutes). Absence of additional peaks (over 202-798 nm, monitored on a PDA detector) was interpreted as no reaction between the sulfinic acid and iodoacetamide.
A 2 mM solution of phenylsulfinic acid was allowed to stand with 20 mM solutions of N-acetyl-cysteine-methyl ester, benzaldehyde, cystine dimethyl ester, and 5,5′-dithiobis-(2-nitrobenzoic acid) in phosphate buffer pH 7.4 for 5 hours. The reaction mixtures were injected on an HPLC and analyzed using gradient elution (5% ACN to 95% ACN over 15 minutes). Peaks beyond minute 8.6 in (a) are contaminants present in the commercial cysteine sample (Sigma-Aldrich).
Cross-reactivity was determined by allowing components to react for 4 hours. HPLC analysis (every 30 minutes) was used to monitor reactions. Reduction in peak intensity of initial components and the appearance of new peak was termed as a positive reaction. Partial reaction indicates incomplete reaction.

A short description of data set [6]: HPLC assay of thiosulfonate reduction by TCEP or ascorbate. Format: physicochemical. The protocol:
FIG. 5A-B. The thiosulfonate product is reduced by TCEP, but not ascorbate. A 0.5 mM solution of the thiosulfonate product was incubated with 2.5 mM TCEP or 2.5 mM sodium ascorbate in phosphate buffer (pH 7.4) in the dark at room temperature. After 5 minutes and 60 minutes, an aliquot injected for HPLC analysis and separated using gradient elution (5% ACN to 95% ACN over 15 minutes).

Results on six molecules are retold here after US10408843B2, “Compositions and methods for detecting S-nitrosylation and S-sulfinylation” (The Regents of the University of Michigan, priority 2013, dated 2019).

As to `C#CCCCC1CC(=O)CC(=O)C1` [Dimedone alkyne, 5-(pent-4-yn-1-yl)cyclohexane-1,3-dione], the “detection of sulfenic acids” value in data set [1] (1 mM, 1 hour, PBS) is given as “most efficient in PBS”. In addition, in data set [1] (lysate denatured in 6 M urea/PBS), the dimedone labeling result is “nearly completely eliminated”. Turning to `O=C(NCCS(=O)O)c1ccc(-c2c3ccc(=O)cc-3oc3cc(O)ccc23)c(C(=O)O)c1` [Fluorescein-SO2H, 2-(6-hydroxy-3-oxo-3H-xanthen-9-yl)-5-((2-sulfinoethyl)carbamoyl)benzoic Acid], the “GAPDH labeling after pre-incubation with peroxide or dimedone” value in data set [2] (500 μM probe, 45 minutes) was “unaffected”. In the case of `O=C(CCCC[C@@H]1SC[C@@H]2NC(=O)N[C@@H]21)NCCS(=O)(=O)O` [biotin-SO3H, 2-(5-((3aS,4S,6aR)-2-oxohexahydro-1H-thieno[3,4-d]imidazol-4-yl)pentanamido)ethanesulfonic Acid], the “labeling of mammalian proteins” value in data set [3] is listed as “unreactive”.

`O=C(NCCS(=O)(=O)O)c1ccc(-c2c3ccc(=O)cc-3oc3cc(O)ccc23)c(C(=O)O)c1` [fluorescein-SO3H, 2-(6-hydroxy-3-oxo-3H-xanthen-9-yl)-5-((2-sulfoethyl)carbamoyl)benzoic Acid]: the “labeling of GAPDH” value in data set [2] (6 M urea/PBS, 50 mM iodoacetamide, probe 45 minutes) was “does not label GAPDH”. `O=S(O)c1ccccc1` [phenylsulfinic acid]: in data set [4] (basic conditions), the “reaction with GSNO” value is “no reaction occurs”. Further, the “reaction rate of thiosulfonate formation with GSNO” value in data set [4] (pH 1 and 4, first order) is 3e-05 M/s. In addition, the “reaction with thiols, disulfides, or aldehydes” value in data set [5] (2 mM with 20 mM N-acetyl-cysteine-methyl ester, benzaldehyde, cystine dimethyl ester, DTNB, phosphate buffer pH 7.4, 5 hours) is “do not react”. Moreover, the reaction with iodoacetamide entry in data set [5] (10 mM with 20 mM iodoacetamide, potassium phosphate buffer pH 7.4, 5 hours) is given as “no reaction”.

Take `COC(=O)[C@H](CSS(=O)(=O)c1ccccc1)NC(C)=O` [thiosulfonate product, (R)-methyl 2-acetamido-3-((phenylsulfonyl)thio)propanoate]: the “cleavage of thiosulfonate bond by TCEP” value in data set [6] (0.5 mM with 2.5 mM TCEP, phosphate buffer pH 7.4, room temperature) is recorded as “immediately cleaves”. Further, the “cleavage of thiosulfonate bond by ascorbate” value in data set [6] (0.5 mM with 2.5 mM sodium ascorbate, pH 7.4, 60 minutes) was “does not”.
